Assay results published in patent publication US20150038404A1, “MACROCYCLIC COMPOUNDS” (University of Florida Research Foundation, priority 2012, published 2015).

Assays:
Format in all cases: cell-based
[1] = tested on: sICAM-1; experiment: Measurement of sICAM-1 levels in culture supernatants (AlphaLisa); conditions: elastase-challenged BEAS-2B cells, 6 h, P<0.05
Protocol: A significant difference in expression of fully glycosylated mICAM-1 (˜100 kDa) was observed between the control and elastase treatment, with maximum expression in the former. […] This inverse relationship is consistent with measurements of sICAM-1 levels in the culture supernatants and provided internal validation of the direct effects of elastase with the proteolytic cleavage of ICAM-1.
BEAS-2B cells (60,000) were seeded in collagen-coated 24-well plates. After overnight incubation, the media was replaced with supplement-free media and the cells were further incubated for 24 h. At the end of the incubation period, cells were replenished with new supplement-free media prior to treatment. Stock human neutrophil elastase solution was prepared in sodium acetate and test aliquots were further diluted in supplement-free medium. […] Control cells were treated with DMSO (1%) and sodium acetate in supplement-free medium (4%). The cells were incubated for 6 h. Culture supernatants were collected and sICAM-1 levels were determined using ICAM-1 AlphaLisa® Kit (Perkin Elmer) according to the manufacturer's instruction.

[2] = tested on: BEAS-2B cells; experiment: Morphology of elastase-treated bronchial epithelial cells; conditions: within 2 h of treatment with human neutrophil elastase
Protocol: FIG. 4. Human neutrophil elastase induces changes in morphology of BEAS-2B cells within 2 h of treatment.
An apparent change in cellular morphology of bronchial epithelial cells was observed within 2 h of elastase treatment, with cells becoming rounded, in contrast to the elongated appearance of control cells (FIG. 4). […] These observations indicated intercellular adhesion molecules as a possible direct target of exogenous elastase in bronchial epithelial cells. […] Several proteases have been implicated in the posttranslational modification of membrane-bound ICAM-1 (mICAM-1) to soluble ICAM-1 (sICAM-1), depending on the cell type. In endothelial, fibroblast and astrocyte cultures, sICAM-1 generation is mediated by a matrix metalloprotease or ADAM 17^24.

[3] = tested on: BEAS-2B cells; experiment: Cell viability (MTT) assay of bronchial epithelial cells challenged with elastase; conditions: within 24 h of treatment, read-out: IC50 of anti-proliferative activity on bronchial epithelial cells
Protocol: FIG. 3. […] HNE induced cell death after 24 h and this was alleviated by cotreatment with compound 1.
Bronchial epithelial cells (BEAS-2B, ATCC) were grown in bronchial epithelial basal media (BEBM, Lonza) supplemented with bronchial epithelial growth factors (Lonza) under a humidified environment with 5% CO2 at 37° C. BEAS-2B (5,000) cells were seeded in collagen-coated 96-well plates and treated with varying concentrations of elastase after 24 h of seeding. […] The cells were incubated for an additional 24 h before the addition of the MTT reagent. Cell viability was measured according to the manufacturer's instructions (Promega). IC50 calculations were done by GraphPad Prism 5.03 based on duplicate experiments.

Row | Molecule | Concentration giving significant decrease of sICAM-1 levels [1] | Effect on elastase-induced change in morphology of BEAS-2B cells [2] | IC50 [3]
1 | CC(C)(C)C(=O)Oc1ccc(S(=O)(=O)Nc2ccccc2C(=O)NCC(=O)O)cc1 [sivelestat] | 320 nM | reverted | –
2 | Elastase: human neutrophil elastase used to challenge bronchial epithelial cells | – | – | 82 nM
